Assay results published in ChEMBL document CHEMBL1201862, “PubChem BioAssay data set” (2004).
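Dose response: 5 concentrations. Exposure: 48 h. Format: 96-well plates. Endpoint: linear interpolation; highest concentration if not reached. Here, GI50 denotes the concentration required for 50% inhibition of growth.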 Active and inactive are the calls of the source. Cut-off read from the data, not from the text of the source: active = GI50 up to about 1.1 µM and inactive = higher.

What was measured:
Experiment in all cases: DTP human tumour cell line panel, 48 h
SF-539 = system: SF-539
NCI-H226 = system: NCI-H226
SN12C = system: SN12C
CAKI-1 = system: CAKI-1
M14 = system: M14
IGROV-1 = system: IGROV-1
MDA-MB-435 = system: MDA-MB-435
SNB-75 = system: SNB-75
Hs-578T = system: Hs-578T
HOP-92 = system: HOP-92
SNB-19 = system: SNB-19
SK-MEL-2 = system: SK-MEL-2
786-0 = system: 786-0
HL-60 = system: HL-60
T47D = system: T47D
A549 = system: A549
SR = system: SR
SF-295 = system: SF-295
MDA-N = system: MDA-N
K562 = system: K562

| Structure (SMILES) | GI50 (SF-539) | GI50 (NCI-H226) | GI50 (SN12C) | GI50 (CAKI-1) | GI50 (M14) | GI50 (IGROV-1) | GI50 (MDA-MB-435) | GI50 (SNB-75) | GI50 (Hs-578T) | GI50 (HOP-92) | GI50 (SNB-19) | GI50 (SK-MEL-2) | GI50 (786-0) | GI50 (HL-60) | GI50 (T47D) | GI50 (A549) | GI50 (SR) | GI50 (SF-295) | GI50 (MDA-N) | GI50 (K562) |
| --- | --- | --- | --- | --- | --- | --- | --- | --- | --- | --- | --- | --- | --- | --- | --- | --- | --- | --- | --- | --- |
| O=C(CSCC(=O)N/N=C\c1ccc(O)c(O)c1O)N/N=C\c1ccc(O)c(O)c1O | 7.67 µM (inactive) | 26.2 µM (inactive) | 21.2 µM (inactive) | 16.7 µM (inactive) | 6.31 µM (inactive) | 19.8 µM (inactive) | 1.97 µM (inactive) | 2.11 µM (inactive) | 30.8 µM (inactive) | 31 µM (inactive) | 29.4 µM (inactive) | 28.3 µM (inactive) | 2.01 µM (inactive) | 15.8 µM (inactive) | 18.7 µM (inactive) | 23.9 µM (inactive) | 2.33 µM (inactive) | 2.24 µM (inactive) | – | – |
| Cc1ccc(/C=C2\CN(C)CC3C2=NN(c2ccccc2)C3c2ccc(C)cc2)cc1 (stereo unspecified) | – | > 100 µM (inactive) | > 100 µM (inactive) | > 100 µM (inactive) | 57.4 µM (inactive) | > 100 µM (inactive) | > 100 µM (inactive) | – | > 100 µM (inactive) | > 100 µM (inactive) | 74.6 µM (inactive) | 29.4 µM (inactive) | > 100 µM (inactive) | – | > 100 µM (inactive) | > 100 µM (inactive) | – | > 100 µM (inactive) | > 100 µM (inactive) | 46.7 µM (inactive) |
| C#CC(=O)OCC#CCOC(=O)C#C | 15.3 µM (inactive) | 19 µM (inactive) | 28.5 µM (inactive) | 19.8 µM (inactive) | 23.4 µM (inactive) | – | 28.8 µM (inactive) | – | 27.8 µM (inactive) | 16.9 µM (inactive) | > 100 µM (inactive) | 20.2 µM (inactive) | 15 µM (inactive) | – | 23.7 µM (inactive) | 27.9 µM (inactive) | – | > 100 µM (inactive) | 38.8 µM (inactive) | – |
| CSc1nc(SC)c2ncn(C3CC(Oc4ccc(C)cc4)C(COc4ccc(C)cc4)O3)c2n1 (stereo unspecified) | > 100 µM (inactive) | > 100 µM (inactive) | > 100 µM (inactive) | > 100 µM (inactive) | > 100 µM (inactive) | > 100 µM (inactive) | > 100 µM (inactive) | 26.5 µM (inactive) | > 100 µM (inactive) | > 100 µM (inactive) | > 100 µM (inactive) | > 100 µM (inactive) | > 100 µM (inactive) | > 100 µM (inactive) | 63.1 µM (inactive) | > 100 µM (inactive) | – | > 100 µM (inactive) | > 100 µM (inactive) | – |
| O=C(O)CN1C(=O)c2ccc(NC(=O)C(=O)O)cc2S1(=O)=O | – | > 100 µM (inactive) | > 100 µM (inactive) | > 100 µM (inactive) | > 100 µM (inactive) | > 100 µM (inactive) | > 100 µM (inactive) | – | > 100 µM (inactive) | > 100 µM (inactive) | > 100 µM (inactive) | > 100 µM (inactive) | > 100 µM (inactive) | > 100 µM (inactive) | > 100 µM (inactive) | > 100 µM (inactive) | > 100 µM (inactive) | > 100 µM (inactive) | > 100 µM (inactive) | > 100 µM (inactive) |
| O=C1CC(C(=O)O)Cc2c(Br)ccc(O)c21 (stereo unspecified) | – | 95.9 µM (inactive) | > 100 µM (inactive) | > 100 µM (inactive) | > 100 µM (inactive) | > 100 µM (inactive) | > 100 µM (inactive) | – | > 100 µM (inactive) | 29 µM (inactive) | > 100 µM (inactive) | > 100 µM (inactive) | > 100 µM (inactive) | > 100 µM (inactive) | > 100 µM (inactive) | > 100 µM (inactive) | 43.7 µM (inactive) | > 100 µM (inactive) | > 100 µM (inactive) | > 100 µM (inactive) |
| COC(=O)c1cc2c(cc1Cl)Sc1nnc(Nc3ccccc3)n1S2(=O)=O | 2.15 µM (inactive) | 2.45 µM (inactive) | 6.31 µM (inactive) | 2.42 µM (inactive) | 4.41 µM (inactive) | 0.351 µM (active) | 7.48 µM (inactive) | 5.12 µM (inactive) | 3.1 µM (inactive) | 1.42 µM (inactive) | 2.28 µM (inactive) | 2.81 µM (inactive) | 4.18 µM (inactive) | 2.77 µM (inactive) | 1.59 µM (inactive) | 8.47 µM (inactive) | 2.74 µM (inactive) | 3.78 µM (inactive) | – | 3.41 µM (inactive) |
| Cc1cc(O)c2c3c(ccc2c1)C(=O)c1c(O)cccc1C3=O [TETRANGULOL] | 7.64 µM (inactive) | – | 72.6 µM (inactive) | > 100 µM (inactive) | 0.675 µM (active) | 2.21 µM (inactive) | 0.179 µM (active) | – | > 40.9 µM (inactive) | > 100 µM (inactive) | 19.9 µM (inactive) | 10.3 µM (inactive) | 7.46 µM (inactive) | 0.692 µM (active) | 5.14 µM (inactive) | 5.14 µM (inactive) | 1.36 µM (inactive) | 17.4 µM (inactive) | 0.188 µM (active) | 18.6 µM (inactive) |
| O=c1[nH]nc(Cc2ccccc2)n1N=C1CCCCC1 | – | > 100 µM (inactive) | > 100 µM (inactive) | > 100 µM (inactive) | > 100 µM (inactive) | > 100 µM (inactive) | > 100 µM (inactive) | – | > 100 µM (inactive) | > 100 µM (inactive) | > 100 µM (inactive) | > 100 µM (inactive) | > 100 µM (inactive) | > 100 µM (inactive) | > 100 µM (inactive) | > 100 µM (inactive) | – | > 100 µM (inactive) | > 100 µM (inactive) | > 100 µM (inactive) |
| Cc1ccc2c(c1)nc1n2C(c2c(F)cccc2F)SC1 (stereo unspecified) | 24.3 µM (inactive) | 29 µM (inactive) | 39.4 µM (inactive) | 27.9 µM (inactive) | 51.1 µM (inactive) | 50.6 µM (inactive) | 29.6 µM (inactive) | 8.51 µM (inactive) | 15.7 µM (inactive) | – | 64.1 µM (inactive) | 20 µM (inactive) | 32 µM (inactive) | – | 41.6 µM (inactive) | 28.8 µM (inactive) | 24.4 µM (inactive) | 35.1 µM (inactive) | 49.8 µM (inactive) | 22.3 µM (inactive) |
| O=C(O)CN1CCN2CCOCCOCCN(CC1)CCN(CC(=O)O)CC2 | > 100 µM (inactive) | > 100 µM (inactive) | > 100 µM (inactive) | > 100 µM (inactive) | > 100 µM (inactive) | > 100 µM (inactive) | > 100 µM (inactive) | > 100 µM (inactive) | > 100 µM (inactive) | > 100 µM (inactive) | > 100 µM (inactive) | > 100 µM (inactive) | > 100 µM (inactive) | – | > 100 µM (inactive) | > 100 µM (inactive) | > 100 µM (inactive) | > 100 µM (inactive) | > 100 µM (inactive) | > 100 µM (inactive) |
| Cc1c(NC(=O)CCl)c(=O)oc2c(C)c3occc(=O)c3cc12 | – | – | – | 12.3 µM (inactive) | 13.1 µM (inactive) | 11.6 µM (inactive) | – | 2.39 µM (inactive) | 15.5 µM (inactive) | 14.2 µM (inactive) | 15.8 µM (inactive) | – | 13.9 µM (inactive) | 5.28 µM (inactive) | 14 µM (inactive) | 14.5 µM (inactive) | 6.49 µM (inactive) | 12.6 µM (inactive) | 16.1 µM (inactive) | 10.1 µM (inactive) |
| CCc1c(O)nc(Nc2nc3ccccc3[nH]2)[nH]c1=O | > 100 µM (inactive) | > 100 µM (inactive) | > 100 µM (inactive) | – | > 100 µM (inactive) | > 100 µM (inactive) | > 100 µM (inactive) | > 100 µM (inactive) | > 100 µM (inactive) | 27.7 µM (inactive) | > 100 µM (inactive) | > 100 µM (inactive) | > 100 µM (inactive) | > 100 µM (inactive) | – | > 100 µM (inactive) | 92.9 µM (inactive) | > 100 µM (inactive) | > 100 µM (inactive) | > 100 µM (inactive) |
| CCCCCCCCCCCC(=O)Oc1c(Cl)cc(Cl)c(OC(=O)C(=O)Oc2c(Cl)cc(Cl)c(OC(=O)CCCCCCCCCCC)c2Cl)c1Cl | – | – | > 100 µM (inactive) | > 100 µM (inactive) | – | > 100 µM (inactive) | > 100 µM (inactive) | > 100 µM (inactive) | > 100 µM (inactive) | > 100 µM (inactive) | > 100 µM (inactive) | > 10 µM (inactive) | > 100 µM (inactive) | – | > 100 µM (inactive) | > 100 µM (inactive) | > 100 µM (inactive) | > 100 µM (inactive) | > 100 µM (inactive) | – |
| CN(C)c1nc(N)nc(CCl)n1 | 26.1 µM (inactive) | 36.8 µM (inactive) | 43.4 µM (inactive) | 5.14 µM (inactive) | 28.1 µM (inactive) | 13.4 µM (inactive) | 37.1 µM (inactive) | 0.912 µM (active) | 25.4 µM (inactive) | 20.7 µM (inactive) | > 100 µM (inactive) | > 100 µM (inactive) | 22.3 µM (inactive) | 19.1 µM (inactive) | 60.4 µM (inactive) | 78.9 µM (inactive) | 24.9 µM (inactive) | 30.8 µM (inactive) | – | 29 µM (inactive) |
| Nc1nc(NNc2ccccc2F)cc(=O)[nH]1 | > 100 µM (inactive) | > 100 µM (inactive) | > 100 µM (inactive) | – | > 100 µM (inactive) | > 100 µM (inactive) | > 100 µM (inactive) | – | > 100 µM (inactive) | – | > 100 µM (inactive) | – | 58.1 µM (inactive) | 56.8 µM (inactive) | – | > 100 µM (inactive) | > 100 µM (inactive) | > 100 µM (inactive) | > 100 µM (inactive) | 58.6 µM (inactive) |
